In brackets after ≈: the same amount, converted by molar mass.
Experiments:
[1] = system: hypervirulent Clostridioides difficile strains; test: MIC against hypervirulent Clostridioides difficile strains; format: cell-based
Procedure: (§1) The antibacterial activity of compounds 48, 50, 51, 61 and 85 against a panel of Clostridioides difficile strains was evaluated. A bacterial solution equivalent to 0.5 McFarland standard was prepared and diluted in brain heart infusion broth supplemented with hemin and vitamin K. Compounds and control drugs were added in the first row of 96-well plates and serially diluted with media containing bacteria (to achieve a concentration gradient ranging from 128 to 1 μg/mL). Plates were then incubated anaerobically at […] for 48 hours.

Ba. dorsei = test: MIC against human normal gut microbiota: Bacteroides dorsei; format: cell-based
Source text: (§2) The activity of the selected lactones against the human gut microbiota was also examined. Microbiota interfere with C. difficile's ability to colonize the gastrointestinal tract and subsequently cause infection. Many antibiotics inhibit/kill the endogenous microflora, which permits enhanced colonization by C. difficile and infection. Three different bacterial species that are present in the gut microflora were used in this experiment; Bifidobacterium (anaerobic Gram-positive bacteria), Bacteroides (anaerobic Gram-negative bacteria) and Lactobacillus (microaerophilic Gram-positive bacteria). Ideal compounds/drugs are those with selective antibacterial activity against C. difficile so as to protect the indigenous microflora present in the GI tract from being damaged/killed (which will exacerbate infections caused by C. difficile).
(§3) Bifidobacterium and Bacteroides were first grown for 48 hours at 37° C., anaerobically, using brain heart infusion supplemented (BHIS) agar (brain heart infusion agar supplemented with hemin, vitamin K and L-cysteine). Lactobacillus was cultivated on MRS agar and incubated in the presence of 5% CO2 for 48 hours at 37° C. Each bacterium was suspended in phosphate-buffered saline (PBS) to achieve 0.5 McFarland standard and subsequently diluted in brain heart infusion supplemented broth (for Bifidobacterium and Bacteroides) or in MRS broth (for Lactobacillus) to achieve a bacterial inoculum of approximately 5×10^5 CFU/mL. Bacteria were then seeded in 96-well plates containing serial dilutions of the compounds and incubated for 48 hours. MICs reported in Table 4 are the minimum concentration of compound/control drug that inhibited the visual growth of bacteria.

L. crispatus = test: MIC against human normal gut microbiota: L. crispatus; format: cell-based, Lactobacillus crispatus
Source text: as §2, §3

Clostridioides difficile = test: MIC by broth microdilution against Clostridioides difficile (Table 1); format: cell-based; conditions: anaerobic, 48 hours; strain BAA-1870
Procedure: (§4) Method: The minimum inhibitory concentration (MIC) of the compounds and control drugs, linezolid (antibiotic), vancomycin (antibiotic), 5-fluorocytosine (5-FC, antifungal drug), and fluconazole (antifungal drug) was determined using the broth microdilution method according to the guidelines outlined by the Clinical and Laboratory Standards Institute (CLSI) against clinically relevant bacterial (methicillin-resistant Staphylococcus aureus (MRSA), vancomycin-resistant Enterococcus faecalis (VRE), vancomycin-resistant Enterococcus faecium (VRE), Clostridioides difficile and Escherichia coli) and fungal (Candida albicans) strains. A solution equivalent to 0.5 McFarland standard was prepared from each strain and diluted in cation-adjusted Mueller-Hinton broth (for S. aureus and E. coli), tryptone soy broth (for E. faecalis), or brain heart infusion broth (for E. faecium) to achieve a bacterial inoculum of about 5×10^5 CFU/mL. C. difficile strains were cultured in brain heart infusion broth supplemented with hemin and vitamin K. C. albicans was diluted in RPMI medium supplemented with 3-(N-morpholino) propanesulfonic acid to achieve a fungal concentration of about 1.5×10^3 CFU/mL. Compounds and control drugs were added in the first row of the 96-well plates and diluted with media containing bacteria (to achieve a concentration gradient ranging from 128 to 1 μg/mL). For MRSA, VRE, and E. coli strains, plates were then incubated aerobically at 37° C. for at least 18 hours. C. albicans was incubated aerobically at 37° C. for 24 hours. Plates containing C. difficile were incubated anaerobically at […] for 48 hours.

L. casei = test: MIC against human normal gut microbiota: L. casei; format: cell-based, Lactobacillus casei; conditions: L. casei HM 334
Source text: as §2, §3

E. faecium = test: Broth microdilution against vancomycin-resistant E. faecium; format: cell-based, Enterococcus faecium; conditions: gradient 128 to 1 μg/mL
Procedure: as §4

[2] = system: clinically important Clostridioides difficile strains; test: MIC against clinically important Clostridioides difficile strains; format: cell-based
Procedure: as §1

MRSA (USA300) = test: microbe, parasite or virus in culture; format: cell-based, Staphylococcus aureus; conditions: aerobic, 37° C., at least 18 hours
Procedure: as §4

E. coli (TolC mutant) = test: MIC by broth microdilution against E. coli (TolC mutant); format: cell-based, Escherichia coli; conditions: aerobic, 37° C., at least 18 hours
Procedure: as §4

E. faecalis (VRE) = test: microbe, parasite or virus in culture; format: cell-based, Enterococcus faecalis; conditions: aerobic, 37° C., at least 18 hours
Procedure: as §4

Bi. breve = test: MIC against human normal gut microbiota: Bifidobacterium breve; format: cell-based; conditions: Bi. breve HM 856
Source text: as §2, §3

C. albicans = test: Broth microdilution against Candida albicans; format: cell-based; conditions: gradient 128 to 1 μg/mL, 24 hours
Procedure: as §4

Bi. longum = test: MIC against human normal gut microbiota: Bifidobacterium longum; format: cell-based; conditions: Bi. longum HM 848
Source text: as §2, §3

Ba. fragilis = test: MIC against human normal gut microbiota: Bacteroides fragilis; format: cell-based
Source text: as §2, §3

L. gasseri = test: MIC against human normal gut microbiota: L. gasseri; format: cell-based, Lactobacillus gasseri; conditions: L. gasseri HM 407
Source text: as §2, §3

L. reuteri = test: MIC against human normal gut microbiota: L. reuteri; format: cell-based, Lactobacillus reuteri; conditions: L. reuteri HM 120
Source text: as §2, §3

Structure (SMILES) | MIC ([1]; CD strain 81) | MIC ([1]; CD strain 82) | MIC ([1]; CD strain 83) | MIC ([1]; CD strain 84) | MIC ([1]; CD strain 85) | MIC ([1]; CD strain 86) | MIC ([1]; CD strain 87) | MIC ([1]; CD strain 90) | MIC ([1]; CD strain 49279) | MIC ([1]; CD strain 49287) | MIC ([1]; CD strain 49291) | MIC (Ba. dorsei; Ba. dorsei HM 29) | MIC (Ba. dorsei; Ba. dorsei HM 717) | MIC (L. crispatus; L. crispatus HM 375) | MIC (L. crispatus; L. crispatus HM 421) | MIC Clostridioides difficile (Clostridioides difficile) | MIC (L. casei) | inhibition of the tested strains of E. faecium (E. faecium) | MIC ([2]; CD strain 16) | MIC ([2]; CD strain 18) | other results
CC(C)(C)[Si](C)(C)OCCC1OC(=O)C(CN2CCCCC2)C1c1cccc(Br)c1 (racemic) [Compound 48] | 16 µg/mL (≈ 32.2 µM) | 8 µg/mL (≈ 16.1 µM) | 8 µg/mL (≈ 16.1 µM) | 8 µg/mL (≈ 16.1 µM) | 8 µg/mL (≈ 16.1 µM) | 8 µg/mL (≈ 16.1 µM) | 4 µg/mL (≈ 8.06 µM) | 4 µg/mL (≈ 8.06 µM) | 8 µg/mL (≈ 16.1 µM) | 4 µg/mL (≈ 8.06 µM) | 4 µg/mL (≈ 8.06 µM) | >128 µg/mL | >128 µg/mL | >128 µg/mL | >128 µg/mL | 8 µg/mL (≈ 16.1 µM) | >128 µg/mL | did not inhibit | 4 µg/mL (≈ 8.06 µM) | 2 µg/mL (≈ 4.03 µM) | MIC ([2]; CD strain 19): 4 µg/mL (≈ 8.06 µM); MIC ([2]; CD strain 1801): 8 µg/mL (≈ 16.1 µM); MIC ([2]; CD strain 43255): 8 µg/mL (≈ 16.1 µM); MIC ([2]; CD strain P6): 8 µg/mL (≈ 16.1 µM); MIC ([2]; CD strain P7): 2 µg/mL (≈ 4.03 µM); MIC ([2]; CD strain P13): 2 µg/mL (≈ 4.03 µM); MIC ([2]; CD strain P19): 2 µg/mL (≈ 4.03 µM); MIC MRSA (USA300) (MRSA (USA300)): >128 µg/mL; MIC E. coli (TolC mutant) (E. coli (TolC mutant)): >128 µg/mL; MIC E. faecalis (VRE) (E. faecalis (VRE)): >128 µg/mL; MIC (Bi. breve): >128 µg/mL; activity against C. albicans (C. albicans): inactive; MIC (Bi. longum): >128 µg/mL; MIC (Ba. fragilis; Ba. fragilis HM 709): >128 µg/mL; MIC (Ba. fragilis; Ba. fragilis HM 710): >128 µg/mL; MIC (Ba. fragilis; Ba. fragilis HM 711): >128 µg/mL; MIC (Ba. fragilis; Ba. fragilis HM 714): >128 µg/mL; MIC (L. gasseri): >128 µg/mL; MIC (L. reuteri): >128 µg/mL
C=C1C(=O)OC(CCCCCCCC)C1C=Cc1ccccc1 (racemic) [Compound 51] | 16 µg/mL (≈ 51.2 µM) | 16 µg/mL (≈ 51.2 µM) | 16 µg/mL (≈ 51.2 µM) | 64 µg/mL (≈ 205 µM) | 64 µg/mL (≈ 205 µM) | 32 µg/mL (≈ 102 µM) | 32 µg/mL (≈ 102 µM) | 4 µg/mL (≈ 12.8 µM) | 16 µg/mL (≈ 51.2 µM) | 8 µg/mL (≈ 25.6 µM) | 8 µg/mL (≈ 25.6 µM) | >128 µg/mL | >128 µg/mL | >128 µg/mL | >128 µg/mL | 8 µg/mL (≈ 25.6 µM) | >128 µg/mL | did not inhibit | 16 µg/mL (≈ 51.2 µM) | 2 µg/mL (≈ 6.4 µM) | MIC ([2]; CD strain 19): 16 µg/mL (≈ 51.2 µM); MIC ([2]; CD strain 1801): 32 µg/mL (≈ 102 µM); MIC ([2]; CD strain 43255): 16 µg/mL (≈ 51.2 µM); MIC ([2]; CD strain P6): 8 µg/mL (≈ 25.6 µM); MIC ([2]; CD strain P7): 16 µg/mL (≈ 51.2 µM); MIC ([2]; CD strain P13): 2 µg/mL (≈ 6.4 µM); MIC ([2]; CD strain P19): 16 µg/mL (≈ 51.2 µM); MIC MRSA (USA300) (MRSA (USA300)): >128 µg/mL; MIC E. coli (TolC mutant) (E. coli (TolC mutant)): >128 µg/mL; MIC E. faecalis (VRE) (E. faecalis (VRE)): >128 µg/mL; MIC (Bi. breve): >128 µg/mL; activity against C. albicans (C. albicans): inactive; MIC (Bi. longum): >128 µg/mL; MIC (Ba. fragilis; Ba. fragilis HM 709): >128 µg/mL; MIC (Ba. fragilis; Ba. fragilis HM 710): >128 µg/mL; MIC (Ba. fragilis; Ba. fragilis HM 711): >128 µg/mL; MIC (Ba. fragilis; Ba. fragilis HM 714): >128 µg/mL; MIC (L. gasseri): >128 µg/mL; MIC (L. reuteri): >128 µg/mL

Source: patent publication US20250195490A1, “ALPHA-METHYLENE AND AMINOMETHYL LACTONES AND LACTAMS FOR TREATMENT OF CLOSTRIDIOIDES DIFFICILE INFECTION (CDI)” (Purdue Research Foundation, priority 2022, published 2025)
